Reference: the supplement of paper PMC11061612

How the values were obtained:
Test in all cases: combination Emax (second highest fraction inhibited in the dose matrix, 72 h); higher = more inhibition; extreme values may be limits of the assay
[1] = system: KYSE-220 (Esophageal Squamous Cell Carcinoma)
Procedure, shortened: (§1)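 Cell lines in DMEM/F12 or RPMI with 10% FBS were plated in 1536-well plates, held 24 hours at 37°C, 5% CO2, then given two-drug dose matrices for 72 hours (DMSO typically 0.2%). Viability was read by CellTiter-Glo 2.0 luminescence and scaled as inhibition from 0 (vehicle wells) to 1 (blank wells). Combination Emax is the second-highest inhibition in the matrix; Bliss excess is observed combination effect minus expected EA + EB − EA·EB, EA and EB being single-agent effects.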

[2] = system: A2780 (Ovarian Carcinoma)
Procedure, shortened: as §1

[3] = system: EW-7 (Ewing's Sarcoma)
Procedure, shortened: as §1

[4] = system: PEO1 (Ovarian Carcinoma)
Procedure, shortened: as §1

[5] = system: SK-HEP-1 (Hepatocellular Carcinoma)
Procedure, shortened: as §1

[6] = system: NCI-H441 (Lung Adenocarcinoma)
Procedure, shortened: as §1

[7] = system: HCC70 (Breast Carcinoma)
Procedure, shortened: as §1

[8] = system: NCI-H2087 (Lung Adenocarcinoma)
Procedure, shortened: as §1

[9] = system: 22RV1 (Prostate Carcinoma)
Procedure, shortened: as §1

[10] = system: EB2 (Burkitt's Lymphoma)
Procedure, shortened: as §1

[11] = system: HCC1395 (Breast Carcinoma)
Procedure, shortened: as §1

[12] = system: NCI-H1703 (Squamous Cell Lung Carcinoma)
Procedure, shortened: as §1

[13] = system: JHH-2 (Hepatocellular Carcinoma)
Procedure, shortened: as §1

[14] = system: 769-P (Kidney Carcinoma)
Procedure, shortened: as §1

[15] = system: MDA-MB-436 (Breast Carcinoma)
Procedure, shortened: as §1

[16] = system: WM1552C (Melanoma)
Procedure, shortened: as §1

[17] = system: MHH-ES-1 (Ewing's Sarcoma)
Procedure, shortened: as §1

[18] = system: NCI-H1651 (Lung Adenocarcinoma)
Procedure, shortened: as §1

[19] = system: LU-165 (Small Cell Lung Carcinoma)
Procedure, shortened: as §1

[20] = system: SW620 (Colorectal Carcinoma)
Procedure, shortened: as §1

Structure (SMILES) | combination Emax [1] | combination Emax [2] | combination Emax [3] | combination Emax [4] | combination Emax [5] | combination Emax [6] | combination Emax [7] | combination Emax [8] | combination Emax [9] | combination Emax [10] | combination Emax [11] | combination Emax [12] | combination Emax [13] | combination Emax [14] | combination Emax [15] | combination Emax [16] | combination Emax [17] | combination Emax [18] | combination Emax [19] | combination Emax [20]
Cc1cc2ncnn2cc1Nc1ncc2c(n1)n(C1CCOCC1)c(=O)n2C [AZD7648] + CN(C)CCCOc1ccc(-c2ccc3ncc4c(c3c2)n(C2CCOCC2)c(=O)n4C)cn1 [AZD0156] (first compound max 10 µM, 7x7, partner max 1 µM) | 0.27 | 0.609 | 0.682 | 0.184 | 0.23 | 0.324 | 0.3 | 0.146 | 0.468 | 0.484 | 0.366 | 0.521 | 0.491 | 0.264 | 0.289 | 0.29 | 0.269 | 0.194 | 0.346 | 0.229
Cc1cc2ncnn2cc1Nc1ncc2c(n1)n(C1CCOCC1)c(=O)n2C [AZD7648] + COc1cc([C@@H]2c3cc4c(cc3[C@@H](O[C@@H]3O[C@@H]5CO[C@@H](C)O[C@H]5[C@H](O)[C@H]3O)[C@H]3COC(=O)[C@H]23)OCO4)cc(OC)c1O [Etoposide] (first compound max 10 µM, 7x7, partner max 10 µM) | 0.876 | 0.889 | 0.882 | 0.613 | 0.653 | 0.449 | 0.373 | 0.633 | 0.666 | 0.953 | 0.432 | 0.892 | 0.605 | 0.75 | 0.386 | 0.507 | 0.931 | 0.738 | 0.495 | 0.95
Cc1cc2ncnn2cc1Nc1ncc2c(n1)n(C1CCOCC1)c(=O)n2C [AZD7648] + C[C@@H]1COCCN1C2=NC(=NC(=C2)C3(CC3)[S@](=N)(=O)C)C4=C5C=CNC5=NC=C4 [AZD6738] (first compound max 10 µM, 7x7, partner max 10 µM) | 0.91 | 0.806 | 0.924 | 0.482 | 0.382 | 0.478 | 0.764 | 0.583 | 0.518 | 0.803 | 0.748 | 0.901 | 0.736 | 0.819 | 0.362 | 0.633 | 0.565 | 0.536 | 0.317 | 0.437
Cc1cc2ncnn2cc1Nc1ncc2c(n1)n(C1CCOCC1)c(=O)n2C [AZD7648] + O=C(c1cc(Cc2n[nH]c(=O)c3ccccc23)ccc1F)N1CCN(C(=O)C2CC2)CC1 [Olaparib] (first compound max 10 µM, 7x7, partner max 10 µM) | 0.149 | 0.576 | 0.536 | 0.153 | 0.242 | 0.163 | 0.178 | 0.135 | 0.346 | 0.526 | 0.4 | 0.417 | 0.473 | 0.232 | 0.195 | 0.117 | 0.801 | 0.263 | 0.143 | 0.159
Cc1nc(Nc2ncc(C(=O)Nc3c(C)cccc3Cl)s2)cc(N2CCN(CCO)CC2)n1 [Dasatinib] + CC(=O)Nc1cccc(-n2c(=O)n(C3CC3)c(=O)c3c(Nc4ccc(I)cc4F)n(C)c(=O)c(C)c32)c1 [Trametinib] (first compound max 2 µM, 7x7, partner max 1 µM) | 0.555 | 0.841 | 0.213 | 0.492 | 0.325 | 0.442 | 0.288 | 0.573 | 0.361 | 0.531 | 0.527 | 0.782 | 0.973 | 0.814 | 0.342 | 0.764 | 0.135 | 0.136 | 0.144 | 0.694
COc1cc2ncnc(Nc3ccc(F)c(Cl)c3)c2cc1OCCCN1CCOCC1 [Gefitinib] + CC(C)n1c(=O)n(C)c2cnc3cc(F)c(-c4ccc(OCCCN5CCCCC5)nc4)cc3c21 [AZD1390] (first compound max 10 µM, 7x7, partner max 0.3 µM) | 0.431 | 0.485 | 0.328 | 0.175 | 0.369 | 0.271 | 0.162 | 0.131 | 0.148 | 0.38 | 0.192 | 0.305 | 0.304 | 0.442 | 0.225 | 0.12 | 0.182 | 0.112 | 0.173 | 0.0744
COc1cc2c(cc1OCCCCCOc1cc3c(cc1OC)C(=O)N1C=C(C)C[C@H]1C=N3)N=C[C@@H]1CC(C)=CN1C2=O [SG3199] + O=C(c1cc(Cc2n[nH]c(=O)c3ccccc23)ccc1F)N1CCN(C(=O)C2CC2)CC1 [Olaparib] (first compound max 0.001 µM, 7x7, partner max 10 µM) | 0.119 | 0.422 | 0.303 | 0.0793 | 0.21 | 0.131 | 0.129 | 0.106 | 0.095 | 0.278 | 0.181 | 0.0514 | 0.192 | 0.174 | 0.121 | 0.178 | 0.703 | 0.274 | 0.0933 | 0.144
N#Cc1cnc(Nc2cc(NC[C@H]3CNCCO3)c(C(F)(F)F)cn2)cn1 [SRA737] + C=CCn1c(=O)c2cnc(Nc3ccc(N4CCN(C)CC4)cc3)nc2n1-c1cccc(C(C)(C)O)n1 [AZD1775] (first compound max 10 µM, partner max 1 µM) | 0.711 | 0.966 | 0.954 | 0.48 | 0.23 | 0.446 | 0.848 | 0.645 | 0.516 | 0.911 | 0.753 | 0.972 | 0.652 | 0.9 | 0.274 | 0.751 | 0.667 | 0.713 | 0.598 | 0.587
N#Cc1cnc(Nc2cc(NC[C@H]3CNCCO3)c(C(F)(F)F)cn2)cn1 [SRA737] + CCc1c2c(nc3ccc(O)cc13)-c1cc3c(c(=O)n1C2)COC(=O)[C@]3(O)CC [SN-38] (first compound max 10 µM, 7x7, partner max 0.3 µM) | 0.905 | 0.85 | 0.976 | 0.746 | 0.802 | 0.663 | 0.674 | 0.918 | 0.685 | 0.929 | 0.766 | 0.929 | 0.724 | 0.9 | 0.549 | 0.638 | 0.975 | 0.835 | 0.647 | 0.955
N#Cc1cnc(Nc2cc(NC[C@H]3CNCCO3)c(C(F)(F)F)cn2)cn1 [SRA737] + Nc1ccn([C@@H]2O[C@H](CO)[C@@H](O)C2(F)F)c(=O)n1 [Gemcitabine] (first compound max 10 µM, 7x7, partner max 0.3 µM) | 0.78 | 0.92 | 1 | 0.728 | 0.724 | 0.58 | 0.823 | 0.585 | 0.734 | 0.945 | 0.725 | 0.952 | 0.708 | 0.851 | 0.579 | 0.796 | 0.986 | 0.735 | 0.544 | 0.889
N#Cc1cnc(Nc2cc(NC[C@H]3CNCCO3)c(C(F)(F)F)cn2)cn1 [SRA737] + O=c1[nH]cc(F)c(=O)[nH]1 [5-Fluorouracil] (first compound max 10 µM, 7x7, partner max 20 µM) | 0.497 | 0.72 | 0.814 | 0.458 | 0.416 | 0.381 | 0.743 | 0.309 | 0.616 | 0.88 | 0.653 | 0.885 | 0.623 | 0.756 | 0.409 | 0.728 | 0.697 | 0.479 | 0.413 | 0.422
C[C@@H](c1ccc2nccn2c1)n1nnc2ncc(-c3cnn(C)c3)nc21 [Savolitinib] + CC1(C)CCC(CN2CCN(c3ccc(C(=O)NS(=O)(=O)c4ccc(NCC5CCOCC5)c([N+](=O)[O-])c4)c(Oc4cnc5[nH]ccc5c4)c3)CC2)=C(c2ccc(Cl)cc2)C1 [Venetoclax] (first compound max 1 µM, 7x7, partner max 1 µM) | 0.146 | 0.14 | 0.118 | 0.219 | 0.164 | 0.171 | 0.165 | 0.184 | 0.214 | 0.153 | 0.247 | 0.139 | 0.0863 | 0.0824 | 0.28 | 0.0794 | 0.185 | 0.186 | 0.221 | 0.124
C[C@@H](c1ccc2nccn2c1)n1nnc2ncc(-c3cnn(C)c3)nc21 [Savolitinib] + Cc1c2c(nn1C)CSCc1cc(n(C)n1)CSc1cc(c3ccccc3c1)OCCCc1c(C(=O)O)n(C)c3c-2c(Cl)ccc13 [AZD5991] (first compound max 1 µM, 7x7, partner max 1 µM) | 0.164 | 0.499 | 0.133 | 0.218 | 0.237 | 0.221 | 0.844 | 0.204 | 0.34 | 0.208 | 0.478 | 0.852 | 0.142 | 0.158 | 0.18 | 0.554 | 0.38 | 0.183 | 0.213 | 0.167
